Among the data in the METLIN SMRT retention time set (Domingo-Almenara et al. 2019) are RP-LC retention time values, retold here.

A short description of this series: gradient 5% acetonitrile 3 min, to 50% in 2 min, to 85% in 15 min, held 3 min, 100 µL/min. As to conditions: column: Zorbax Extend-C18 2.1 x 50 mm; eluents: water / acetonitrile, 0.1% formic acid. Put shortly:
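Retention times come from adduct peaks that were picked computationally and then checked by hand. The standards, pure and pooled in mixtures of ~100 molecules, were run on a Zorbax Extend-C18 column (2.1 × 50 mm, 1.8 μm) at 100 μL/min with water and acetonitrile, each with 0.1% formic acid. Detection was by quadrupole time-of-flight mass spectrometry in positive and negative ionization mode, with a dead volume of 40 μL and a dwell volume of 900 μL.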
`COC[C@@H]1CN(Cc2ccc3cc[nH]c3c2)C[C@H]1c1nc(C)no1` had an RP-LC retention time of 631 s. To `CC(C)CCn1c(CCCC(=O)Nc2ccncc2)nc2cccnc21` belongs 601 s; to `Cc1c([C@@H](C)C2NC[C@@H](C)C[C@H]2O)ccc2c1C[C@@H]1[C@H]2CC=C2C[C@@H](O)CC[C@@]21C` (some centres undefined), 749 s; to `COc1ccc(OC)c(CNC(=O)C2CCN(Cc3cn(C)c4ccc(OC)cc34)CC2)c1`, 682 s. Molecule `Cc1ccc(N2C(=O)C3N=NN(Cc4nc(-c5ccc(Br)cc5)no4)C3C2=O)cc1` (centres undefined) had an RP-LC retention time of 1070 s. `Cc1cc(C)cc(-n2ccn(Cc3nc(-c4ccc(F)cc4)no3)c(=O)c2=O)c1` returned an RP-LC retention time of 884 s. The value for `CCCCS(=O)(=O)N1CC[C@H](CN(C)C(C)=O)[C@H](N(C)C)C1` was 584 s; that for `CCNC(=O)c1n[nH]c2c1CN(C(=O)c1ccc3c(c1)OCO3)CC2` was 634 s; that for `O=C1NC(=O)/C(=C\c2ccccc2Br)S1` was 821 s.

On to `CCN(CC)CCNC(=O)CCC(=O)N1CCc2c(c(C(=O)N3CCCCC3)nn2C)C1`, for which the RP-LC retention time came out at 573 s. To `CC(C)CN1CCn2cc(S(=O)(=O)Nc3ccccc3F)cc2C1=O` belongs 1320 s; to `CNC(=O)Nc1cccc(-c2ccc(OC)nn2)c1`, 631 s; to `CCOc1ccc(-c2noc(Cn3nc(-c4cccc(OC)c4)ccc3=O)n2)cc1`, 1070 s.

Molecule `O=C(Nc1nc(-c2ccccc2)cs1)c1ccc(F)cc1` had an RP-LC retention time of 995 s. To `Cc1ccc(NC(=O)C2CC(=O)N(CCc3c[nH]c4ccc(C)cc34)C2)c(C)c1` (centres undefined) belongs 842 s; to `COc1cc2c(cc1OC)C(C(=O)NCc1ccc3c(c1)OCO3)C1c3ccccc3CCN1C2=O` (centres undefined), 788 s. The value for `CCS(=O)(=O)N1CC(=O)N(c2ccc(C)c(C)c2)C(C)(C(=O)NC2CCCCCC2)C1` (centres undefined) was 979 s; that for `CN(C)c1ccccc1CN1CCCN(Cc2ccccc2N(C)C)C1c1ccncc1` was 711 s; that for `COCC1CN(S(=O)(=O)c2ccc(F)c(C)c2)CC12CCNCC2` (centres undefined) was 636 s.

`O=C([C@@H]1C[C@H](F)CN1S(=O)(=O)c1ccc(F)c(F)c1)N1CCc2ccccc2C1` returned an RP-LC retention time of 943 s. To `CCOc1nc2ccccc2nc1N1CCCC(C(=O)NC2CCCCC2)C1` (centres undefined) belongs 1170 s; to `Cc1ccc(C(=O)N2CCCn3cc(-c4ccccc4F)nc32)cn1`, 627 s; to `Cc1ccc2oc(C(=O)Nc3ccc(-n4cnnn4)cc3)c(C)c2c1`, 933 s. The value for `CC1CCCN(C(=O)c2ccc3ncnc(N4CCCC4)c3c2)C1` (centres undefined) was 640 s; that for `COc1ccc(Cc2nc3nccc(-c4cc(OC)c(OC)c(OC)c4)n3n2)cc1` was 860 s; that for `Cc1nc(NS(=O)(=O)c2ccccc2)sc1C(=O)NCc1c(F)cccc1F` was 718 s. `O=c1c2cc(-c3ccc(F)cc3)nn2cnn1Cc1nc(-c2ccccc2Cl)no1`: the RP-LC retention time is 1110 s. Take `CCOc1ccc(N2C(=O)C3N=NN(Cc4nc(-c5cccc(Br)c5)no4)C3C2=O)cc1` (centres undefined): the RP-LC retention time was found to be 1080 s. To `CC(C)CCN(C1CCOCC1)C1CCN(C(=O)Nc2cccc(F)c2)CC1` belongs 650 s. The value for `COc1ccc(-n2nnc(C(=O)O)c2C)cc1OC` was 628 s. `CC(=O)Nc1cccc(-c2nc(-c3ccc4oc(-c5ccccc5)nc4c3)no2)c1` gave an RP-LC retention time of 769 s. `Cc1cc(F)ccc1NC(=O)c1sc(-c2cn(C)c3ncccc23)nc1C`: the RP-LC retention time worked out at 899 s. The value for `Cc1cccc(C(=O)Nc2ccc(N3CCN(C4CCCC4)C3=O)nc2)c1` was 888 s; that for `CSc1ccccc1C(=O)Nc1ccc(CC(=O)NCC(F)(F)F)cc1` was 738 s. The value for `Cc1ccc(CNC(=O)c2ccc(-c3nnc4ccc(NC(=O)C5CCC5)cn34)cc2)cc1` was 869 s.

As for `O=C1NCCCCCN(C(=O)c2cccs2)[C@H]2CCC[C@@H]12`, the RP-LC retention time came to 698 s.

`COc1cccc(CNC(=O)C2CCCN(c3nccnc3Sc3ccccc3)C2)c1` (centres undefined): the RP-LC retention time turned out to be 1100 s. To `O=C(O)c1cnc(N2CCOCC2)nc1-c1cccc(Cl)c1` belongs 770 s. The value for `CCC1CN2C=NC(N3CCN(C(=O)c4nn(CC)cc4Cl)CC3)=CC2=N1` (centres undefined) was 602 s.

`O=C(NCCc1csc(-c2cccs2)n1)C1CCN(C(=O)c2ccc(F)c(F)c2)CC1` had an RP-LC retention time of 809 s. To `Cc1nnc(-c2ccc3ccn(CC(=O)Nc4cccc(CN5CCCC5)c4)c3c2)o1` belongs 610 s; to `Cc1cncn(CC(=O)Nc2ccccc2Cl)c1=O`, 608 s; to `Cc1ccc(NS(=O)(=O)c2ccc3c(c2)C(=O)N(C)c2ncccc2O3)c(C)c1`, 986 s. To `Cc1cccc(-c2nnc(CC(=O)NCC(C)C)o2)c1` belongs 790 s; to `COc1ccccc1N1CCN(C(=O)C2CCN(C(=O)C3Sc4ccccc4NC3=O)CC2)CC1` (centres undefined), 717 s; to `O=C(Nc1ccccc1Br)N1CCN(CCn2cnc3cccnc32)CC1`, 595 s. The value for `CCOc1ccc(-c2noc(CN3N=NC4C(=O)N(c5ccc(OC)cc5)C(=O)C43)n2)cc1OC` (centres undefined) was 924 s.

For the molecule `CCOC(=O)COc1cccc2c1CCN(Cc1ccc(Cl)cc1)C2=O`, the RP-LC retention time was 934 s.

`O=C(NCCN1CCOCC1)c1nnc(-c2ccc(S(=O)(=O)N3CCCCC3)cc2)o1`: the RP-LC retention time came to 647 s.

`CCCCOc1ccc(NC(N)=Nc2ccc(Cl)cc2)cc1` showed an RP-LC retention time of 778 s. The molecule `COCCn1ncc(N2CCC(C(=O)Nc3cc(OC)cc(OC)c3)C2)cc1=O` (centres undefined) gave an RP-LC retention time of 684 s.

Turning to `CCOc1cccc(-c2noc(-c3nn(-c4ccc(OC)cc4)ccc3=O)n2)c1`, the RP-LC retention time is 938 s.

Take `CCOC(=O)C1CCCN(C(=O)c2cccc3c2SCCC3=O)C1` (centres undefined): the RP-LC retention time worked out at 780 s. To `Cc1ccc(NC(=O)NCC(c2cccnc2)c2cn(C)c3ccccc23)cc1F` (centres undefined) belongs 722 s.

`Cc1ccc(-c2nc3cnccn3c2NCCC(=O)O)cc1` gave an RP-LC retention time of 610 s. To `CCCC(NC(=O)c1ccc(OC)c(OC)c1)C(=O)Nc1nc2ccccc2[nH]1` (centres undefined) belongs 650 s; to `Cc1csc(NC(=O)Cn2nc3c(cc2=O)CCCCC3)n1`, 735 s; to `COc1ccc(CN2C=C(C(=O)OCc3noc(-c4ccccc4F)n3)C(C)=NS2(=O)=O)cc1`, 1090 s.

`COc1ccccc1OCCNC(=O)c1ccc2[nH]c3c(c2c1)CN(C(C)=O)CC3` returned an RP-LC retention time of 680 s.
